# From patent US20260373248A1, “DEGRADABLE PEPTOIDS” (Medici Therapeutics, Inc., priority 2023, published 2026)
# Non-standard residues stand in square brackets, D forms with d. Residues, ends and D or L forms follow the SMILES beside them. *: point of attachment. Gly(N-(3-decanoyloxypropyl)) = CCCCCCCCCC(=O)OCCCNCC(=O)O; N(3-lauroyloxypropyl)Gly = CCCCCCCCCCCC(=O)OCCCNCC(=O)O; Gly(N-(CH2)3O-octanoyl) = CCCCCCCC(=O)OCCCNCC(=O)O; N(3-imidazol-1-ylpropyl)Gly = O=C(O)CNCCCn1ccnc1; Gly(N-3-morpholinopropyl) = O=C(O)CNCCCN1CCOCC1; N(2-ethylhexyl)Gly = CCCCC(CC)CNCC(=O)O; NDecylGly = CCCCCCCCCCNCC(=O)O; NHexGly = CCCCCCNCC(=O)O; For = O=C*
# Legend:
# hEPO = assay: Quantification of hEPO in serum after IV injection of mRNA (Human EPO ELISA); format: in vivo; conditions: Balb/c mice, 2.5 μg mRNA IV, serum after 6 hours
# Procedure: Balb/c mice were treated with 2.5 μg of mRNA coding for human erythropoiten via IV injection according to a similar method as in Example 4. hEPO protein in the serum was quantified after 6 hours using the Human EPO ELISA Kit from Invitrogen (catalog #BMS2035-2). Wash buffer (PBS with 1% tween 20) and assay buffer (PBS with 1% tween 20, 10% BSA) were prepared from a 20× concentrate with milli-Q water. Serum samples were diluted with PBS according to expected EPO concentration, with a 50× dilution for low expression samples and up to a 30,000× dilution for samples expected to have high expression. Microwell strips were washed in a plate washer with wash buffer and tapped on an absorbent pad to remove excess buffer. 100 μL of sample diluent were added to each well that will be used for the standard curve. 50 μL of sample diluent was added to each sample well.
# The standard curve was prepared by reconstituting the human erythropoietin standard by adding the volume of water listed on the vial label. Standard was swirled gently and allowed to reconstitute for 10 minutes prior to use, then 100 μL is added to standard wells and mixed well. 100 μL from standard wells were then transferred to sample wells and mixed well. This was repeated 5 times to produce 2 columns of standard dilutions from 100 to 1.6 mIU/mL. 100 μL was discarded from the last microwells. The final 2 wells contained 100 μL of sample diluent and served as a blank. An external standard was also included to facilitate a mIU/mL conversion to ng/mL. The same serial dilution method was repeated starting with the external standard at 6.25 ng/mL. Once the standards were added, 50 μL of each sample was added in duplicate to the sample wells. Next, the biotin-conjugate was prepared by diluting 1:100 in assay buffer. 50 μL of biotin-conjugate was added to all wells and the plate was covered with a plate seal and shaken at room temperature for 1 hour. During the last few minutes of shaking, streptavidin-HRP was prepared by diluting 1:100 in assay buffer. The plate was washed on a plate washer and tapped on an absorbent pad to remove remaining wash buffer.
# 100 μL of the diluted streptavidin-HRP was added to each well and the plate was sealed and shaken for 15 minutes at room temperature. After 15 minutes, the plate seal was removed and the plate was washed on a plate washer and remaining wash buffer tapped out on an absorbent pad. 100 μL of TMB substrate was added to all wells and the plate was incubated for 10 minutes at room temperature out of direct light. Color development was checked every few minutes and the assay was stopped when the highest standard was dark blue. The reaction was stopped by pipetting 100 μL of stop solution into each well. Immediately after stop solution was added, the plate was gently tapped to ensure the solution was mixed. Absorbance was then read at 450 nm for each well. A standard curve was plotted for both the kit-provided standards (mIU/mL) and the external standard (ng/mL) and fit using Prism. Sample absorbances that fell within the standard curve were interpolated and adjusted for dilution (including a 2× assay dilution). Samples that were not within the standard curve were repeated at an adjusted dilution.
# luciferase = assay: Luciferase expression after local (intramuscular or subcutaneous) administration of mRNA; format: in vivo; conditions: mRNA 0.01 mpk, 6 hours; for IM Flux: intramuscular; for SC Flux: subcutaneous
# Procedure: (§1) All animal studies were conducted under accreditation by the California State Department of Public Health and under supervision of IACUC and Veterinarian Supervision. For imaging studies, female Balb/c mice (6-8 weeks old) were obtained and acclimatized for a minimum of 3 days prior to experiments. The animals were maintained on a 12 hour light cycle in a temperature and humidity controlled room. A daily health check was performed as well as food and water check. For dosing, mice were injected with 2.5 ug fLuc mRNA-containing Nutshells intravenously in 100 μL total injection value. At 6 hours post-injection, mice were anesthetized with isoflurane, injected IP with 30 mg/mL D-luciferin at a dose of 10 μL per gram bodyweight intraperitoneally. Imaging was done 10 minutes post D-luciferin injection using an IVIS Spectrum Imaging System (Caliper Life Sciences). Immediately after in vivo imaging, mice were terminally bled by cardiac puncture and euthanized. The organs of interest were harvested, placed in black 24-well plates, and imaged. Living Image software (Perkin Elmer) was used to quantify the total photon flux in regions of interest.
# Aminolipidated peptoids were also effective for local administration of mRNA through subcutaneous (S.C.) or intramuscular (I.M.) routes of administration. For these examples, mRNA was administered at a dose of 0.1 mpk for intratomoral, or 0.01 mpk for subcutaneous and intramuscular administration, and the resulting bioluminescence quantified after 6 hours according to a similar procedure as described in Example 4.
# [1] = Delivery vehicle size and polydispersity by dynamic light scattering; format: physicochemical; conditions: DLS in PBS; peptoid:DSPC:Cholesterol:DMG-PEG2000 weight ratio 20:1.79:7.16:1.84, mRNA
# Procedure: Delivery vehicles were formulated by rapid microfluidic mixing using a high throughput microfluidic system. Briefly, ethanol solutions containing peptoid, DSPC, Cholesterol, DMG-PEG2000 at weight ratio of 20:1.79:7.16:1.84, were mixed with 10 mM sodium citrate buffer (pH 5.0) containing synthesized mRNA at a ratio of 1:3 by volume. Peptoid based LNPs were subsequently dialyzed against 1-2 liters of tris-sucrose buffer (TS7, pH 7.4) overnight at 4 °C. Delivery vehicle size and polydispersity (PDI) was measured by dynamic light scattering in PBS.
# (§2) Degradable peptoids described herein were formulated as various formulations described in Table 3 according to the procedure described in Example 2. Particle size was characterized as described in Example 2, and […] encapsulation of mRNA was determined as described in Example 3.
# mRNA = mRNA encapsulation (modified Quant-iT RiboGreen assay); format: physicochemical; conditions: RiboGreen, without vs with Triton X-100
# Procedure: The mRNA concentration and the percentage of encapsulated mRNA were determined using fluorescent-based Quant-iT RiboGreen RNA Reagent Kit (Life Technologies, Waltham, MA) as described previously. To determine the mRNA concentration, PNPs was incubated with […] for 10 min to release entrapped mRNA, followed by addition of RiboGreen RNA reagent. The fluorescence intensity of mRNA-RiboGreen reagent complex (excitation at 485 nm and emission at 530 nm) was detected using a microplate reader. The ratio of fluorescence without and with Triton X-100 were used to calculate the percentage of encapsulated mRNA.
# as §2
# firefly luciferase = assay: In vivo firefly luciferase expression after intravenous injection of fLuc mRNA delivery vehicles (IVIS imaging); set-up: species or system female Balb/c mice; conditions: mice, 2.5 ug fLuc mRNA intravenously, 6 hours post-injection
# Procedure: as §1
# Luciferase expression in these formulations was also determined as described in Example 4.
compound,measurement,setting,value
CCCCCCCCCCCC(=O)OCCCN(C=O)CC(=O)N(CCCOC(=O)CCCCCCCCCCC)CC(=O)N(CC(=O)N(CCCN1CCOCC1)CC(=O)N(CC(=O)N(CCCOC(=O)CCCCCCCCCCC)CC(=O)N(CCCOC(=O)CCCCCCCCCCC)CC(N)=O)CC(CC)CCCC)CC(CC)CCCC (centres unmarked) [Compound 91] (For-[N(3-lauroyloxypropyl)Gly][N(3-lauroyloxypropyl)Gly][N(2-ethylhexyl)Gly][Gly(N-3-morpholinopropyl)][N(2-ethylhexyl)Gly][N(3-lauroyloxypropyl)Gly][N(3-lauroyloxypropyl)Gly]-NH2),hEPO,hEPO,17.4 ng/mL
same,IM Flux,luciferase,2.44E+08 p/s
same,SC Flux,luciferase,4.22E+07 p/s
CCCCCCCC(=O)OCCCN(C=O)CC(=O)N(CCCOC(=O)CCCCCCC)CC(=O)N(CCc1ccccc1)CC(=O)N(CC(=O)N(CCCn1ccnc1)CC(=O)N(CCCOC(=O)CCCCCCC)CC(=O)N(CCc1ccccc1)CC(=O)N(CCCOC(=O)CCCCCCC)CC(=O)N(CC(N)=O)CC(CC)CCCC)CC(CC)CCCC (centres unmarked) [Compound 123],PDI,[1],0.201
same,Particle Size,[1],118.1 nm
same,mean percent encapsulation of RNA,mRNA,56.3%
same,hEPO,hEPO,172 ng/mL
same,IM Flux,luciferase,6.45E+06 p/s
same,SC Flux,luciferase,1.01E+07 p/s
CCCCCCCCCCCC(=O)OCCCN(CC(=O)N(CCCOC(=O)CCCCCCCCCCC)CC(=O)N(CC(=O)N(CCCOC(=O)CCCCCCCCCCC)CC(=O)N(CCCOC(=O)CCCCCCCCCCC)CC(=O)N(CC(N)=O)CC(CC)CCCC)CC(CC)CCCC)C(=O)CNCCCn1ccnc1 (centres unmarked) [Compound 68] (H-[N(3-imidazol-1-ylpropyl)Gly][N(3-lauroyloxypropyl)Gly][N(3-lauroyloxypropyl)Gly][N(2-ethylhexyl)Gly][N(3-lauroyloxypropyl)Gly][N(3-lauroyloxypropyl)Gly][N(2-ethylhexyl)Gly]-NH2),PDI,[1],0.178
same,Particle Size,[1],87.2 nm
same,mean percent encapsulation of RNA,mRNA,79.7%
same,Total Flux,firefly luciferase,4.20E+08 p/s
same,hEPO,hEPO,72.6 ng/mL
same,IM Flux,luciferase,5.10E+06 p/s
same,SC Flux,luciferase,3.39E+08 p/s
CCCCCCCC(=O)OCCCN(C=O)CC(=O)N(CCCOC(=O)CCCCCCC)CC(=O)N(CCc1ccccc1)CC(=O)N(CC(=O)N(CCCN1CCOCC1)CC(=O)N(CCCOC(=O)CCCCCCC)CC(=O)N(CCc1ccccc1)CC(=O)N(CCCOC(=O)CCCCCCC)CC(=O)N(CC(N)=O)CC(CC)CCCC)CC(CC)CCCC (centres unmarked) [Compound 125],PDI,[1],0.111
same,Particle Size,[1],86.2 nm
same,mean percent encapsulation of RNA,mRNA,82.1%
same,Total Flux,firefly luciferase,2.12E+09 p/s
same,hEPO,hEPO,13.4 ng/mL
same,IM Flux,luciferase,9.45E+07 p/s
same,SC Flux,luciferase,8.55E+07 p/s
CCCCCCCCCCCC(=O)OCCCN(CC(=O)N(CCCOC(=O)CCCCCCCCCCC)CC(=O)N(CCCCCC)CC(=O)N(CCCOC(=O)CCCCCCCCCCC)CC(=O)N(CCCOC(=O)CCCCCCCCCCC)CC(=O)N(CCCCCC)CC(N)=O)C(=O)CN(C=O)CCCN1CCOCC1 [Compound 71] (For-[Gly(N-3-morpholinopropyl)][N(3-lauroyloxypropyl)Gly][N(3-lauroyloxypropyl)Gly][NHexGly][N(3-lauroyloxypropyl)Gly][N(3-lauroyloxypropyl)Gly][NHexGly]-NH2),PDI,[1],0.238
same,Particle Size,[1],86.9 nm
same,mean percent encapsulation of RNA,mRNA,13.1%
same,Total Flux,firefly luciferase,4.43E+08 p/s
same,hEPO,hEPO,38.1 ng/mL
same,IM Flux,luciferase,3.61E+08 p/s
same,SC Flux,luciferase,9.18E+07 p/s
CCCCCCCCCCN(C=O)CC(=O)N(CCCOC(=O)CCCCCCC)CC(=O)N(CC(=O)N(CCCn1ccnc1)CC(=O)N(CC(=O)N(CCCOC(=O)CCCCCCC)CC(=O)N(CCCCCCCCCC)CC(N)=O)CC(CC)CCCC)CC(CC)CCCC (centres unmarked) [Compound 114] (For-[NDecylGly][Gly(N-(CH2)3O-octanoyl)][N(2-ethylhexyl)Gly][N(3-imidazol-1-ylpropyl)Gly][N(2-ethylhexyl)Gly][Gly(N-(CH2)3O-octanoyl)][NDecylGly]-NH2),PDI,[1],0.245
same,Particle Size,[1],119.7 nm
same,mean percent encapsulation of RNA,mRNA,40.7%
same,Total Flux,firefly luciferase,2.06E+08 p/s
same,hEPO,hEPO,23.7 ng/mL
same,IM Flux,luciferase,9.30E+07 p/s
same,SC Flux,luciferase,1.03E+08 p/s
CCCCCCCCCCN(C=O)CC(=O)N(CCCOC(=O)CCCCCCCCC)CC(=O)N(CC(=O)N(CCCN1CCOCC1)CC(=O)N(CC(=O)N(CCCOC(=O)CCCCCCCCC)CC(=O)N(CCCCCCCCCC)CC(N)=O)CC(CC)CCCC)CC(CC)CCCC (centres unmarked) [Compound 117] (For-[NDecylGly][Gly(N-(3-decanoyloxypropyl))][N(2-ethylhexyl)Gly][Gly(N-3-morpholinopropyl)][N(2-ethylhexyl)Gly][Gly(N-(3-decanoyloxypropyl))][NDecylGly]-NH2),PDI,[1],0.156
same,Particle Size,[1],78.4 nm
same,mean percent encapsulation of RNA,mRNA,49.8%
same,Total Flux,firefly luciferase,5.14E+09 p/s
same,hEPO,hEPO,685 ng/mL
same,IM Flux,luciferase,2.10E+08 p/s
same,SC Flux,luciferase,6.43E+08 p/s
